In patent US20230113037A1 (Bayer Aktiengesellschaft, priority 2019, published 2023):
Read-outs that look alike come from different tables or passages of the source.

What was measured:
AHR [1] = molecular target: T1, AHR (Homo sapiens, UniProt P35869); assay: In vitro assay 1: antagonism in human cell line (AHR transactivation, firefly luciferase reporter, kynurenic acid prestimulated); format: cell-based; details: AHR Antagonism Human IC50 [M]
T1 construct: U87 MG glioblastoma cells (ATCC #HTB-14) endogenously expressing AHR; endogenous in cells; host or cells: U87 MG glioblastoma cells (ATCC #HTB-14)
T1 sequence (P35869 11-848): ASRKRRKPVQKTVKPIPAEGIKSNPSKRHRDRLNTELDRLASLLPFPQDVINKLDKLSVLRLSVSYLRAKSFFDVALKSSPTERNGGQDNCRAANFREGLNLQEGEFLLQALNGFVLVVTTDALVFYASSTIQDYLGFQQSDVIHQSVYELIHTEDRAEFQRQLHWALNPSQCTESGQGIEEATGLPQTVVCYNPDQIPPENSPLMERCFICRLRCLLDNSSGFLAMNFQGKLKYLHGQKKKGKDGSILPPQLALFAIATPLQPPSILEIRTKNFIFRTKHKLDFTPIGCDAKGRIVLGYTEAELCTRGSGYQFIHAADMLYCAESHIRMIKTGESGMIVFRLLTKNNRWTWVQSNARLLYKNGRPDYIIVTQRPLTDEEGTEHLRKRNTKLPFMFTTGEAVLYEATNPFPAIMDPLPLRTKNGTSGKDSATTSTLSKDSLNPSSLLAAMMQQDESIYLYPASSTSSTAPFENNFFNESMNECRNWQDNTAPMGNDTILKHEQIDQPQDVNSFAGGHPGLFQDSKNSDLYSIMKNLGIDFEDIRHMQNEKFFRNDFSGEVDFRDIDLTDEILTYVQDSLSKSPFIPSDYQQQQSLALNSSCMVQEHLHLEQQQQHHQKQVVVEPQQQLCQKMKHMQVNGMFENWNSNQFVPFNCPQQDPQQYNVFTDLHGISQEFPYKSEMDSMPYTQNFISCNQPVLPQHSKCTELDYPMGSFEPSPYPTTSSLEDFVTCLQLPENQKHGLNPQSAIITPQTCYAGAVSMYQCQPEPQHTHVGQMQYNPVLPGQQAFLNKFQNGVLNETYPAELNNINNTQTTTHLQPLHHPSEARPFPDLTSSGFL
How it was run: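 U87 MG + DRE-firefly/constitutive-Renilla stable reporters; kynurenic acid prestim; dual-luc read; Renilla = tox; normalized vs pos/neg controls (pos: 150 μM KYNA + 5 μM staurosporine).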

AHR [2] = molecular target: T2, AHR (Mus musculus, UniProt P30561); assay: In vitro assay 3: antagonism in mouse cell line (AHR transactivation, firefly luciferase reporter, kynurenic acid prestimulated); format: cell-based
T2 sequence (P30561 1-848 P471L/N533S/M589L): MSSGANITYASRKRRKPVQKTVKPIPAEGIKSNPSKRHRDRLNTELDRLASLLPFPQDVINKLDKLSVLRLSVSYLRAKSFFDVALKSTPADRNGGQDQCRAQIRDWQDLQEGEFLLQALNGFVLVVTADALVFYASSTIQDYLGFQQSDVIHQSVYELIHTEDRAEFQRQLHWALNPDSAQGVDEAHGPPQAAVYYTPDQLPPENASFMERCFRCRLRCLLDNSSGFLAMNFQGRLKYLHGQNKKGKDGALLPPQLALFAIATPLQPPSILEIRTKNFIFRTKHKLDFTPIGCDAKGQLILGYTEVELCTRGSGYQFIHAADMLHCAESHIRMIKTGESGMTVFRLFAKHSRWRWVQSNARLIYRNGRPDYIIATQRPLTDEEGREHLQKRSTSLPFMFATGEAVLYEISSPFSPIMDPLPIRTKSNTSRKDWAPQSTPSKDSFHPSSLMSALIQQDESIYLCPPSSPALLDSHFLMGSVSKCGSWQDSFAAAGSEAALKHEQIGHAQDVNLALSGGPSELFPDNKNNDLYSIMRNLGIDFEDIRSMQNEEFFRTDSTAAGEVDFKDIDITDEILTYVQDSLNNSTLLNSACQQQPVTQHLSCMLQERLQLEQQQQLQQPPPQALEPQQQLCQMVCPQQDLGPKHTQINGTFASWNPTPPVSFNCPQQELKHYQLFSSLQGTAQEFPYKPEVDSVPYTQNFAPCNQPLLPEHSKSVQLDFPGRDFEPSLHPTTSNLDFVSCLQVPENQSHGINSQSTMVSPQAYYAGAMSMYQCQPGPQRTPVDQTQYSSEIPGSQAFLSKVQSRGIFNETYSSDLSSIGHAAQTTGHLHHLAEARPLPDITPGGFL
How it was run: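 Mouse cells stably carrying a DRE-driven, AHR-inducible firefly luciferase reporter were prestimulated with the endogenous agonist kynurenic acid before compound addition. Luciferase activity was measured by luminescence and normalized to positive and negative controls, with cells lacking kynurenic acid serving as full-inhibition control. Repeat tests are reported as mean or median.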

[3] = mouse Hepa 1c1c7 cells, 200 μM kynurenic acid, 20 hours, read-out: AHR Antagonism Mouse IC50
[4] = read-out: AHR Antagonism Mouse IC50, mouse Hepa 1c1c7 cells, 200 μM kynurenic acid, 20 hours

SMILES	IC50 (AHR [1]) [M]	IC50 (AHR [2]; [3]) [nM]	IC50 (AHR [2]; [4]) [nM]
Cn1cc(-c2nc3c4ccccc4nc(N[C@H]4CCCCNC4=O)n3n2)cn1 [Example 14, (3S)-3-{[2-(1-methyl-1H-pyrazol-4-yl)[1,2,4]triazolo[1,5-c]quinazolin-5-yl]amino}azepan-2-one]	2.14e-07	234	
Cn1cc(-c2nc3c4ccccc4nc(NC4CCNC4=O)n3n2)cn1 (centres unmarked) [Example 15, 3-{[2-(1-methyl-1H-pyrazol-4-yl)[1,2,4]triazolo[1,5-c]quinazolin-5-yl]amino}pyrrolidin-2-one]	1.78e-05	7820	
CC[C@@H](Nc1nc2ccccc2c2nc(-c3cnn(C)c3)nn12)C(N)=O [Example 17, (2R)-2-{[2-(1-methyl-1H-pyrazol-4-yl)[1,2,4]triazolo[1,5-c]quinazolin-5-yl]amino}butanamide]	7.44e-08	27.6	
COc1ccc(-c2nc3c4ccccc4nc(N[C@@H]4CCCCNC4=O)n3n2)cc1 [Example 29, (3R)-3-{[2-(4-methoxyphenyl)[1,2,4]triazolo[1,5-c]quinazolin-5-yl]amino}azepan-2-one]	4.03e-10	0.524	
COc1ccc(-c2nc3c4ccccc4nc(N[C@@H]4CCNC4=O)n3n2)cc1 [Example 39, (3R)-3-{[2-(4-methoxyphenyl)[1,2,4]triazolo[1,5-c]quinazolin-5-yl]amino}pyrrolidin-2-one]	1.59e-08	53.6	
COc1ccc(-c2nc3c4ccccc4nc(N[C@H]4CCNC4=O)n3n2)cc1 [Example 40, (3S)-3-{[2-(4-methoxyphenyl)[1,2,4]triazolo[1,5-c]quinazolin-5-yl]amino}pyrrolidin-2-one]	2.08e-08	380	
Cc1ccccc1-c1nc2c3ccccc3nc(N[C@H]3CCCCNC3=O)n2n1 [Example 41, (3S)-3-{[2-(2-methylphenyl)[1,2,4]triazolo[1,5-c]quinazolin-5-yl]amino}azepan-2-one]	2.12e-08		1.7
Cc1ccccc1-c1nc2c3ccccc3nc(N[C@@H]3CCCCNC3=O)n2n1 [Example 42, (3R)-3-{[2-(2-methylphenyl)[1,2,4]triazolo[1,5-c]quinazolin-5-yl]amino}azepan-2-one]	3.03e-10		0.158
Cc1ccccc1-c1nc2c3ccccc3nc(NC3CCNC3=O)n2n1 (centres unmarked) [Example 43, 3-{[2-(2-methylphenyl)[1,2,4]triazolo[1,5-c]quinazolin-5-yl]amino}pyrrolidin-2-one]	8.65e-09	19.8	
Cc1ccccc1-c1nc2c3ccccc3nc(NC3CCCNC3=O)n2n1 (centres unmarked) [Example 44, 3-{[2-(2-methylphenyl)[1,2,4]triazolo[1,5-c]quinazolin-5-yl]amino}piperidin-2-one]	1.57e-08	16.9	
Cc1ccccc1-c1nc2c3ccccc3nc(NC3CNCCNC3=O)n2n1 (centres unmarked) [Example 45, 6-{[2-(2-methylphenyl)[1,2,4]triazolo[1,5-c]quinazolin-5-yl]amino}-1,4-diazepan-5-one]	1.19e-08	14.5	
O=C1NCCCC[C@H]1Nc1nc2ccccc2c2nc(-c3ccccc3C(F)(F)F)nn12 [Example 52, (3R)-3-({2-[2-(trifluoromethyl)phenyl][1,2,4]triazolo[1,5-c]quinazolin-5-yl}amino)azepan-2-one]	1.3e-08	3.22	
Cc1cccc(-c2nc3c4ccccc4nc(N[C@@H]4CCCCNC4=O)n3n2)c1 [Example 53, (3R)-3-{[2-(3-methylphenyl)[1,2,4]triazolo[1,5-c]quinazolin-5-yl]amino}azepan-2-one]	1.16e-08	5.28	
O=C1NCCCC[C@H]1Nc1nc2ccccc2c2nc(-c3cccc(C(F)(F)F)c3)nn12 [Example 54, (3R)-3-({2-[3-(trifluoromethyl)phenyl][1,2,4]triazolo[1,5-c]quinazolin-5-yl}amino)azepan-2-one]	2.08e-08	3.2	
O=C1NCCCC[C@H]1Nc1nc2ccccc2c2nc(-c3ccccc3F)nn12 [Example 55, (3R)-3-{[2-(2-fluorophenyl)[1,2,4]triazolo[1,5-c]quinazolin-5-yl]amino}azepan-2-one]	2.01e-09	15.7	
COc1ccccc1-c1nc2c3ccccc3nc(N[C@H]3CCCCNC3=O)n2n1 [Example 60, (3S)-3-{[2-(2-methoxyphenyl)[1,2,4]triazolo[1,5-c]quinazolin-5-yl]amino}azepan-2-one]	> 2e-05	131	
COc1ccccc1-c1nc2c3ccccc3nc(N[C@@H]3CCCCNC3=O)n2n1 [Example 61, (3R)-3-{[2-(2-methoxyphenyl)[1,2,4]triazolo[1,5-c]quinazolin-5-yl]amino}azepan-2-one]	3.63e-08	664	
O=C1NCCCC[C@H]1Nc1nc2ccccc2c2nc(-c3cc[nH]n3)nn12 [Example 62, (3R)-3-{[2-(1H-pyrazol-3-yl)[1,2,4]triazolo[1,5-c]quinazolin-5-yl]amino}azepan-2-one]	1.11e-07	154	
Cn1ccc(-c2nc3c4ccccc4nc(N[C@@H]4CCCCNC4=O)n3n2)n1 [Example 63, (3R)-3-{[2-(1-methyl-1H-pyrazol-3-yl)[1,2,4]triazolo[1,5-c]quinazolin-5-yl]amino}azepan-2-one]	2.87e-08	41.9	
Cc1cc(-c2nc3c4ccccc4nc(N[C@@H]4CCCCNC4=O)n3n2)n[nH]1 [Example 64, (3R)-3-{[2-(5-methyl-1H-pyrazol-3-yl)[1,2,4]triazolo[1,5-c]quinazolin-5-yl]amino}azepan-2-one]	6.33e-08	85	
Cn1nccc1-c1nc2c3ccccc3nc(N[C@@H]3CCCCNC3=O)n2n1 [Example 65, (3R)-3-{[2-(1-methyl-1H-pyrazol-5-yl)[1,2,4]triazolo[1,5-c]quinazolin-5-yl]amino}azepan-2-one]	6.42e-09	3.17	
CCn1cc(-c2nc3c4ccccc4nc(N[C@@H]4CCCCNC4=O)n3n2)c(C)n1 [Example 66, (3R)-3-{[2-(1-ethyl-3-methyl-1H-pyrazol-4-yl)[1,2,4]triazolo[1,5-c]quinazolin-5-yl]amino}azepan-2-one]	1.36e-09	1.01	
CCn1cc(-c2nc3c4ccccc4nc(N[C@@H]4CCCCNC4=O)n3n2)cn1 [Example 67]	6.43e-09	5.53	
Cc1c(-c2nc3c4ccccc4nc(N[C@@H]4CCCCNC4=O)n3n2)cnn1C [Example 68, (3R)-3-{[2-(1,5-dimethyl-1H-pyrazol-4-yl)[1,2,4]triazolo[1,5-c]quinazolin-5-yl]amino}azepan-2-one]	1.03e-08		8.57
O=C1NCCCC[C@H]1Nc1nc2ccccc2c2nc(-c3cn[nH]c3)nn12 [Example 69, (3R)-3-{[2-(1H-pyrazol-4-yl)[1,2,4]triazolo[1,5-c]quinazolin-5-yl]amino}azepan-2-one]	3.59e-07	460	
